Source: PubChem BioAssay AID1259407 (Chemical Carcinogenesis Research Information System (CCRIS), 2018)
Active and inactive are the calls of the source. No rule for the calls is given here.

Test system: CCRIS mutagenicity, Ames/micronucleus/aberration tests
Assay: CCRIS mutagenicity studies
[1] = Test System: AMES SALMONELLA TYPHIMURIUM, Strain/Indicator: TA98, Metabolic Activation: NONE, Method: STANDARD PLATE
[2] = Test System: AMES SALMONELLA TYPHIMURIUM, Strain/Indicator: TA100, Metabolic Activation: NONE, Method: STANDARD PLATE
[3] = Test System: AMES SALMONELLA TYPHIMURIUM, Strain/Indicator: TA102, Metabolic Activation: NONE, Method: STANDARD PLATE
[4] = Test System: AMES SALMONELLA TYPHIMURIUM, Strain/Indicator: TA98, Metabolic Activation: RAT, LIVER, S-9, AROCLOR 1254, Method: STANDARD PLATE
[5] = Test System: AMES SALMONELLA TYPHIMURIUM, Strain/Indicator: TA100, Metabolic Activation: RAT, LIVER, S-9, AROCLOR 1254, Method: STANDARD PLATE

Measured: mutagenic call

CC12CCC(CC1)C(C)(C)O2
inactive: End Point: IN VITRO CHROMOSOMAL ABERRATIONS, Test System: CHINESE HAMSTER OVARY CELLS, Metabolic Activation: NONE inactive; negative; precipitation occurred at 663 ug/ml | End Point: IN VITRO CHROMOSOMAL ABERRATIONS, Test System: CHINESE HAMSTER OVARY CELLS, Metabolic Activation: RAT, LIVER, S-9, AROCLOR 1254 inactive; negative; precipitation occurred at all doses | Test System: AMES SALMONELLA TYPHIMURIUM, Strain/Indicator: TA97A, Metabolic Activation: NONE, Method: STANDARD PLATE inactive; negative | Test System: AMES SALMONELLA TYPHIMURIUM, Strain/Indicator: TA97A, Metabolic Activation: RAT LIVER S-9, AROCLOR 1254, Method: STANDARD PLATE inactive; negative | [1] inactive; negative | Test System: AMES SALMONELLA TYPHIMURIUM, Strain/Indicator: TA98, Metabolic Activation: RAT LIVER S-9, AROCLOR 1254, Method: STANDARD PLATE inactive; negative | [2] inactive; negative | Test System: AMES SALMONELLA TYPHIMURIUM, Strain/Indicator: TA100, Metabolic Activation: RAT LIVER S-9, AROCLOR 1254, Method: STANDARD PLATE inactive; negative | [3] inactive; negative | Test System: AMES SALMONELLA TYPHIMURIUM, Strain/Indicator: TA102, Metabolic Activation: RAT LIVER S-9, AROCLOR 1254, Method: STANDARD PLATE inactive; negative | Test System: E. coli, Strain/Indicator: WP2 IC185 trpE65, Metabolic Activation: None, Method: Plate incorporation inactive; negative | Test System: E. coli, Strain/Indicator: WP2 IC202 trpE65 oxyR/pKM101, Metabolic Activation: None, Method: Plate incorporation inactive; negative

O=c1[nH]cc(/C=C/Br)c(=O)[nH]1
inactive: Test System: CHINESE HAMSTER V-79, Strain/Indicator: V-79/8-AZAGUANINE, Metabolic Activation: NONE inactive; negative | Test System: UDS RODENT HEPATOCYTES, Strain/Indicator: THY INCORP, Metabolic Activation: NONE inactive; negative

CCCCCC[C@H]1C(=O)O[C@H](C)[C@H](NC(=O)c2cccc(NC=O)c2O)C(=O)O[C@@H](C)[C@@H]1OC(=O)CC(C)C
inactive: End Point: In vitro chromosomal aberrations, Test System: Chinese hamster lung (CHL/IU) cells, Metabolic Activation: None inactive; negative | Test System: MOUSE LYMPHOMA, Strain/Indicator: L5178Y (TK+/TK-), Metabolic Activation: NONE, Method: SUSPENSION/PLATE inactive; negative
active: End Point: In vitro chromosomal aberrations, Test System: Chinese hamster lung (CHL/IU) cells, Metabolic Activation: Rat, Liver, S-9, Phenobarbital and 5,6-benzoflavone (16.7%) active; positive (structural aberrations) | End Point: In vitro chromosomal aberrations, Test System: Chinese hamster ovary (CHO-WBL) cells, Metabolic Activation: Rat, Liver, S-9, Phenobarbital and 5,6-benzoflavone (5%) active; positive (structural changes and polyploidy) | End Point: In vitro chromosomal aberrations, Test System: Chinese hamster ovary (CHO-WBL) cells, Metabolic Activation: Rat, Liver, S-9, Phenobarbital and 5,6-benzoflavone (16.7%) active; positive (polyploidy)

C1COCOC1
inactive: Test System: AMES SALMONELLA TYPHIMURIUM, Strain/Indicator: TA98, Metabolic Activation: HAMSTER, LIVER, S-9, AROCLOR 1254, Method: PREINCUBATION inactive; negative | Test System: AMES SALMONELLA TYPHIMURIUM, Strain/Indicator: TA98, Metabolic Activation: NONE, Method: PREINCUBATION inactive; negative | Test System: AMES SALMONELLA TYPHIMURIUM, Strain/Indicator: TA98, Metabolic Activation: RAT, LIVER, S-9, AROCLOR 1254, Method: PREINCUBATION inactive; negative | Test System: AMES SALMONELLA TYPHIMURIUM, Strain/Indicator: TA100, Metabolic Activation: HAMSTER, LIVER, S-9, AROCLOR 1254, Method: PREINCUBATION inactive; negative | Test System: AMES SALMONELLA TYPHIMURIUM, Strain/Indicator: TA100, Metabolic Activation: NONE, Method: PREINCUBATION inactive; negative | Test System: AMES SALMONELLA TYPHIMURIUM, Strain/Indicator: TA100, Metabolic Activation: RAT, LIVER, S-9, AROCLOR 1254, Method: PREINCUBATION inactive; negative | Test System: AMES SALMONELLA TYPHIMURIUM, Strain/Indicator: TA1535, Metabolic Activation: HAMSTER, LIVER, S-9, AROCLOR 1254, Method: PREINCUBATION inactive; negative | Test System: AMES SALMONELLA TYPHIMURIUM, Strain/Indicator: TA1535, Metabolic Activation: NONE, Method: PREINCUBATION inactive; negative | Test System: AMES SALMONELLA TYPHIMURIUM, Strain/Indicator: TA1535, Metabolic Activation: RAT, LIVER, S-9, AROCLOR 1254, Method: PREINCUBATION inactive; negative | Test System: AMES SALMONELLA TYPHIMURIUM, Strain/Indicator: TA1537, Metabolic Activation: HAMSTER, LIVER, S-9, AROCLOR 1254, Method: PREINCUBATION inactive; negative | Test System: AMES SALMONELLA TYPHIMURIUM, Strain/Indicator: TA1537, Metabolic Activation: NONE, Method: PREINCUBATION inactive; negative | Test System: AMES SALMONELLA TYPHIMURIUM, Strain/Indicator: TA1537, Metabolic Activation: RAT, LIVER, S-9, AROCLOR 1254, Method: PREINCUBATION inactive; negative

c1ccc([As+](c2ccccc2)(c2ccccc2)c2ccccc2)cc1
inactive: Test System: Mouse lymphoma, Strain/Indicator: L5178Y (TK+/TK-), Metabolic Activation: None, Method: Microwell inactive; negative

O=C(CO)N(O)c1ccc(Cl)cc1
inactive: [1] inactive; negative | [4] inactive; negative | [2] inactive; negative | [5] inactive; negative

CN(C)CCNC(=O)c1cccn2cc(-c3ccccc3)nc12
active: Test System: AMES SALMONELLA TYPHIMURIUM, Strain/Indicator: TA1537, Metabolic Activation: NONE, Method: STANDARD PLATE active; positive

ClCc1c2ccccc2c(Cl)c2ccccc12
active: [2] active; positive

CC[n+]1c2ccccc2nc2ccccc21
active: [4] active; positive | Test System: AMES SALMONELLA TYPHIMURIUM, Strain/Indicator: TA1537, Metabolic Activation: RAT, LIVER, S-9, AROCLOR 1254, Method: STANDARD PLATE active; positive | Test System: E. COLI, Strain/Indicator: WP2 UVRA (PKM101), Metabolic Activation: NONE, Method: STANDARD PLATE active; positive
inactive: [1] inactive; negative | [2] inactive; negative | [5] inactive; negative | [3] inactive; negative | Test System: AMES SALMONELLA TYPHIMURIUM, Strain/Indicator: TA1538, Metabolic Activation: NONE, Method: STANDARD PLATE inactive; negative | Test System: AMES SALMONELLA TYPHIMURIUM, Strain/Indicator: TA1538, Metabolic Activation: RAT, LIVER, S-9, AROCLOR 1254, Method: STANDARD PLATE inactive; negative | Test System: AMES SALMONELLA TYPHIMURIUM, Strain/Indicator: TA2638, Metabolic Activation: NONE, Method: STANDARD PLATE inactive; negative | Test System: E. COLI, Strain/Indicator: WP2 (PKM101), Metabolic Activation: NONE, Method: STANDARD PLATE inactive; negative
